Molecular target: T1, abc isoform of human TMEM16A channel expressed in CHO cells (Homo sapiens, UniProt Q5XXA6, DEL476-501)
T1 construct: expressed in transfected cells; host or cells: CHO cells, doxycycline-inducible expression under Blasticidin/Zeocin selection
T1 sequence (Q5XXA6 with tags, fused parts or gaps isoform Q5XXA6-5 DEL539-564): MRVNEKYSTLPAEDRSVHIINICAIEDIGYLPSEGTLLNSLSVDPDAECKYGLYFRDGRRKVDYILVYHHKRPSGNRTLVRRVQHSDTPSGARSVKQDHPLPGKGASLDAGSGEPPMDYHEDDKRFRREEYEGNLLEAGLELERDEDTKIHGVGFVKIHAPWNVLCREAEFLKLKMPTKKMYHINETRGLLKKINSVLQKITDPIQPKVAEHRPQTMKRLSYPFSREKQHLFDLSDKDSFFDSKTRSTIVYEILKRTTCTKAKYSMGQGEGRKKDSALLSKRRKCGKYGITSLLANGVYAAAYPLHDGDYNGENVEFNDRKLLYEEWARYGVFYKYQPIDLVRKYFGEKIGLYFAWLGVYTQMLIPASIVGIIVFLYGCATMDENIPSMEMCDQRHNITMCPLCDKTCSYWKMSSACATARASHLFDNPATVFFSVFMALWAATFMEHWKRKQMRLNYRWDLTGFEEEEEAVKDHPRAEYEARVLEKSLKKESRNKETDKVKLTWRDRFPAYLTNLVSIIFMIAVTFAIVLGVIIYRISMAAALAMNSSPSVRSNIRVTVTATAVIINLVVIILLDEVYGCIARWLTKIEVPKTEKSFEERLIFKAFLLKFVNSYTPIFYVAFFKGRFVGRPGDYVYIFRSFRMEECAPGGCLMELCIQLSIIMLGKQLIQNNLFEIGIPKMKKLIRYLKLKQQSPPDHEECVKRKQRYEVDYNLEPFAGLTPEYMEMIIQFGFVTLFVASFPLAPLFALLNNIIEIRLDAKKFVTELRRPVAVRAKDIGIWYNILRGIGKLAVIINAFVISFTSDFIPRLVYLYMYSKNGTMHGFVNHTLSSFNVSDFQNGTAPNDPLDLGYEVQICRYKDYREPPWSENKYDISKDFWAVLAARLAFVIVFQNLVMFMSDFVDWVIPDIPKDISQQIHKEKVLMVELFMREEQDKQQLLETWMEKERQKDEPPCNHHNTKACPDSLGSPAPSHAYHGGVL
Assay: Automated patch clamping (QPatch) assay to measure TMEM16A activity in whole-cell
Format: cell-based
Conditions: for EC50: CHO cells expressing human TMEM16A (abc), whole-cell automated patch clamp, Hill fit, read-out: TMEM16A QPATCH assay EC50 V3 EC50; for Emax: CHO, maximum current at highest dose relative to reference potentiator at maximal concentration (upper limit) and vehicle (lower limit), read-out: TMEM16A QPATCH assay EC50 V3 Assay Window (% TMEM16A max activation)
Summary of the method: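 CHO cells with doxycycline-induced (1 μg/mL, 18-24 h) human TMEM16A abc isoform; QPatch whole-cell recording, hold −70 mV, step +70 mV 1500 ms, then −90 to +70 mV ramp. Compounds in 0.3% DMSO; EC50 by Hill fit; % max activation relative to vehicle baseline and reference potentiator maximum.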

Row | EC50 [µM] | Emax [%] | SMILES
1 | 0.2 | 72 | CCC(CC)NC(=O)c1cnc(-c2cccc(-c3cc(C(=O)N4CCCC(C)(C)C4)n[nH]3)c2)o1 [Example 3.15, 2-(3-(3-(3,3-Dimethylpiperidine-1-Carbonyl)-1H-Pyrazol-5-Yl)Phenyl)-N-(Pentan-3-Yl)Oxazole-5-Carboxamide]
2 | 0.03 | 90 | CCCC(CCC)NC(=O)c1cc(-c2cccc(-c3ncc(C(=O)NC(CC)CC)o3)c2)[nH]n1 [Example 3.2, 2-(3-(3-(Heptan-4-Ylcarbamoyl)-1 H-Pyrazol-5-Yl)Phenyl)-N-(Pentan-3-yl)Oxazole-5-Carboxamide]
3 | 0.04 | 116 | CCOC(=O)[C@@H](NC(=O)c1cc(-c2cccc(-c3ncc(C(=O)NC(C4CC4)C4CC4)o3)c2)nn1CC(C)(C)O)C(C)C [Example 10.0, (S)-Ethyl 2-(3-(3-(5-((Dicyclopropylmethyl)Carbamoyl)Oxazol-2-Yl)Phenyl)-1-(2-Hydroxy-2-Methylpropyl)-1 H-Pyrazole-5-Carboxamido)-3-Methylbutanoate]
4 | 0.13 | 69 | CCC(CC)NC(=O)c1cc(-c2cccc(-c3ncc(C(=O)NCc4ccccc4)o3)c2)[nH]n1 [Example 1.19, N-Benzyl-2-(3-(3-(Pentan-3-Ylcarbamoyl)-1H-Pyrazol-5-Yl)Phenyl)Oxazole-5-Carboxamide]
5 | 1 | 95 | CCC(CC)NC(=O)c1cnc(-c2cccc(-c3nc(C(=O)NC(CC)CC)n(CCOCCOCCOC)n3)c2)o1 [Example 15.9, 2-(3-(1-(2-(2-(2-Methoxyethoxy)Ethoxy)Ethyl)-5-(Pentan-3-Ylcarbamoyl)-1H-1,2,4-Triazol-3-Yl)Phenyl)-N-(Pentan-3-Yl)Oxazole-5-Carboxamide]
6 | 0.18 | 88 | CCC(CC)NC(=O)c1cnc(-c2cccc(-c3cc(C(=O)N[C@@H](C)C4CC4)n(CCO)n3)c2)o1 [Example 9.8, (S)-2-(3-(5-((1-cyclopropylethyl)carbamoyl)-1-(2-hydroxyethyl)-1 H-pyrazol-3-yl)phenyl)-N-(pentan-3-yl)oxazole-5-carboxamide]
7 | 0.05 | 95 | CCC(CC)NC(=O)c1nnc(-c2cccc(-c3ncc(C(=O)NC(CC)CC)o3)c2)[nH]1 [Example 13.3, N-(Pentan-3-Yl)-2-(3-(5-(Pentan-3-Ylcarbamoyl)-1 H-1,2,4-Triazol-3-Yl)Phenyl)Oxazole-5-Carboxamide]
8 | 0.03 | 83 | CCOC(=O)[C@@H](NC(=O)c1cnc(-c2cccc(-c3cc(C(=O)N[C@@H](CC(C)C)C(=O)OC)n[nH]3)c2)o1)C(C)C [Example 2.1, (S)-Methyl 2-(5-(3-(5-(((S)-1-Ethoxy-3-Methyl-1-Oxobutan-2-yl)Carbamoyl)Oxazol-2-Yl)Phenyl)-1H-Pyrazole-3-Carboxamido)-4-Methylpentanoate]
9 | 0.13 | 84 | CCC(CC)NC(=O)c1cnc(-c2cccc(-c3cc(C(=O)NC(C)(C)C)n[nH]3)c2)o1 [Example 3.43, 2-(3-(3-(Tert-Butylcarbamoyl)-1 H-Pyrazol-5-Yl)Phenyl)-N-(Pentan-3-yl)Oxazole-5-Carboxamide]
10 | 0.27 | 165 | CCC(CC)NC(=O)c1cc(-c2cccc(-c3ncc(C(=O)NC(CC)C(C)C)o3)c2)[nH]n1 (stereo not drawn) [Example 1.11, N-(2-Methylpentan-3-Yl)-2-(3-(3-(Pentan-3-Ylcarbamoyl)-1H-Pyrazol-5-yl)Phenyl)Oxazole-5-Carboxamide]
11 | 0.84 | 201 | O=C(NC1CCCC1)c1cnc(-c2cccc(-c3cc(C(=O)NC4CCCC4)n(CCCO)n3)c2)o1 [Example 5.2, N-Cyclopentyl-2-(3-(5-(Cyclopentylcarbamoyl)-1-(3-Hydroxypropyl)-1H-Pyrazol-3-Yl)Phenyl)Oxazole-5-Carboxamide]
12 | 0.15 | 80 | CC(C)[C@H](C)NC(=O)c1cnc(-c2cccc(-c3nnc(C(=O)N[C@@H](C)C4CC4)[nH]3)c2)o1 [Example 12.11]
13 | 0.03 | 119 | CCOC(=O)[C@@H](NC(=O)c1cnc(-c2cccc(-c3cc(C(=O)NC(CC)C(F)(F)F)[nH]n3)c2)o1)C(C)C (stereo partly drawn) [Example 1.22, (2S)-Ethyl 3-Methyl-2-(2-(3-(5-((1,1,1-Trifluorobutan-2-Yl)Carbamoyl)-1H-Pyrazol-3-Yl)Phenyl)Oxazole-5-Carboxamido)Butanoate]
14 | 0.22 | 92 | COC(=O)[C@@H](NC(=O)c1cnc(-c2cccc(-c3nnc(C(=O)N[C@@H](C)C4CC4)[nH]3)c2)o1)C(C)C [Example 12.3, (S)-Methyl 2-(2-(3-(5-(((S)-1-Cyclopropylethyl)Carbamoyl)-4H-1,2,4-Triazol-3-Yl)Phenyl)Oxazole-5-Carboxamido)-3-Methylbutanoate]
15 | 1.1 | 102 | CCOC(=O)[C@@H](NC(=O)c1cnc(-c2cccc(-c3cc(C(=O)NC(CC)CC)n[nH]3)c2)o1)c1ccccc1 [Example 1.36, (S)-Ethyl 2-(2-(3-(3-(Pentan-3-Ylcarbamoyl)-1 H-Pyrazol-5-Yl)Phenyl)Oxazole-5-Carboxamido)-2-Phenylacetate]
16 | 0.49 | 43 | CCC(CC)NC(=O)c1cnc(-c2cccc(-c3cc(C(=O)Nc4cccc(OC(F)(F)F)c4)n[nH]3)c2)o1 [Example 3.14, N-(Pentan-3-Yl)-2-(3-(3-((3-(Trifluoromethoxy)Phenyl)Carbamoyl)-1 H-Pyrazol-5-Yl)Phenyl)Oxazole-5-Carboxamide]
17 | 0.03 | 88 | CCC(CC)NC(=O)c1cnc(-c2cccc(-c3nnc(C(=O)NCC4CCCCC4)[nH]3)c2)o1 [Example 13.5, 2-(3-(5-((Cyclohexylmethyl)Carbamoyl)-4H-1,2,4-Triazol-3-Yl)Phenyl)-N-(Pentan-3-Yl)Oxazole-5-Carboxamide]
18 | 0.46 | 102 | C[C@H](NC(=O)c1cnc(-c2cccc(-c3nc(C(=O)N[C@@H](C)C4CC4)n(CCO)n3)c2)o1)C1CC1 [Example 16.1, N-((S)-1-Cyclopropylethyl)-2-(3-(5-(((S)-1-Cyclopropylethyl)Carbamoyl)-1-(2-Hydroxyethyl)-1H-1,2,4-Triazol-3-Yl)Phenyl)Oxazole-5-Carboxamide]
19 | 0.17 | 66 | CCOC(=O)[C@H](CC1CCCCC1)NC(=O)c1cc(-c2cccc(-c3ncc(C(=O)NC(CC)CC)o3)c2)[nH]n1 [Example 3.17, (S)-Ethyl 3-Cyclohexyl-2-(5-(3-(5-(Pentan-3-Ylcarbamoyl)Oxazol-2-Yl)Phenyl)-1 H-Pyrazole-3-Carboxamido)Propanoate]
20 | 0.15 | 98 | CCC(CC)NC(=O)c1cnc(-c2cccc(-c3cc(C(=O)NC(C)(C)CCc4ccccc4)n[nH]3)c2)o1 [Example 3.39, 2-(3-(3-((2-Methyl-4-Phenylbutan-2-Yl)Carbamoyl)-1H-Pyrazol-5-yl)Phenyl)-N-(Pentan-3-Yl)Oxazole-5-Carboxamide]
21 | 0.03 | 146 | CCC(CC)NC(=O)c1cc(-c2cccc(-c3ncc(C(=O)N[C@H](C(=O)OC(C)(C)C)C(C)C)o3)c2)[nH]n1 [Example 1.9, (S)-Tert-Butyl 3-Methyl-2-(2-(3-(3-(Pentan-3-Ylcarbamoyl)-1H-Pyrazol-5-yl)Phenyl)Oxazole-5-Carboxamido)Butanoate]
22 | 0.65 | 77 | C[C@@H](NC(=O)c1n[nH]c(-c2cccc(-c3ncc(C(=O)N[C@H](C)C4CC4)o3)c2)n1)C1CC1 [Example 13.2, N-((R)-1-Cyclopropylethyl)-2-(3-(3-(((R)-1-Cyclopropylethyl)Carbamoyl)-1H-1,2,4-Triazol-5-Yl)Phenyl)Oxazole-5-Carboxamide]
23 | 0.92 | 86 | CCC(CC)NC(=O)c1cc(-c2cccc(-c3ncc(C(=O)Nc4cccc(C#N)c4)o3)c2)[nH]n1 [Example 1.27, N-(3-Cyanophenyl)-2-(3-(3-(Pentan-3-Ylcarbamoyl)-1 H-Pyrazol-5-yl)Phenyl)Oxazole-5-Carboxamide]
24 | 0.57 | 72 | CCC(CC)NC(=O)c1cc(-c2cccc(-c3ncc(C(=O)NCC4(C)CCCCC4)o3)c2)[nH]n1 [Example 1.34, N-((1-Methylcyclohexyl)Methyl)-2-(3-(3-(Pentan-3-Ylcarbamoyl)-1 H-Pyrazol-5-Yl)Phenyl)Oxazole-5-Carboxamide]

Reference: patent US20220306617A1, “SUBSTITUTED 1,3-PHENYL HETEROARYL DERIVATIVES AND THEIR USE IN THE TREATMENT OF DISEASE” (NOVARTIS AG, priority 2019, published 2022)
